Measured values reported in patent US5744492A, “Method for inhibiting angiogenesis” (United States of America, priority 1994, dated 1998).

Experiments:
[1] = test system: HUVECs; experiment: bFGF-stimulated HUVEC growth in low serum (1% FCS), crystal violet; format: cell-based; conditions: Homo sapiens, bFGF 10 ng/ml
Experimental: (§1) Human umbilical vein endothelial cells (H 930) were generously supplied by Dr. Tom Maciag, American Red Cross (Gaithersburg, Md., USA) and were used between passages 9 and 14 to avoid senescence. HUVECs were grown on fibronectin-coated tissue culture plastic (200 μg/150 mm dish) in complete medium (Medium 199 (M-199) containing 5 U/mL preservative-free heparin, 25.5 μg/mL ECGS, 10% fetal bovine serum and 100 U/mL penicillin, 100 μg/mL streptomycin, and 0.25 μg/mL fungizone).
Growth inhibition of HUVECs by compound 1 was measured by crystal violet nuclear stain. Briefly, 50,000 cells were seeded per well in 24 well plates using complete medium in the presence of increasing concentrations of compound 1 (0.01-10 μM) or DMS0 vehicle control (0.1%) and cultures were incubated for 24-120 hours. […] Optical density of the eluted samples was determined at 540 nm and the results were expressed as percent of DMSO control cell growth. Data are expressed as percentage of control value and are presented as mean±SEM (n=3).
To evaluate the effect of bFGF on HUVECs growth, cells were plated in low serum medium (1% FCS) in the presence of 10 ng/ml of bFGF and increasing concentrations of compound 1. At the indicated time, cells were fixed, stained, and quantitated as described above.

[2] = test system: MMP-2; experiment: Gelatin zymography of HUVEC conditioned medium, bFGF-stimulated proMMP-2 and its activated form; format: cell-based; conditions: Homo sapiens, bFGF 10 ng/mL for final 24 hr, read-out: inhibition of bFGF-stimulated synthesis of proMMP-2 and its activated form
Experimental: as §1
Gelatin zymography was carried out as described in Brown, et al., Cancer Research 50:6184-6191 (1990). HUVECs were seeded at 1.2×10^5 /cm^2 in 25 cm^2 fibronectin-coated tissue culture flasks in complete medium containing increasing concentrations of compound 1 (0.1-10 μM) or DMSO vehicle control. After 18 hr of culture, the complete medium was removed and the cells were washed once with serum-free M-199 supplemented with 5 μg/mL bovine insulin, 5 μg/mL human transferrin and 5 ng/mL sodium selenite (ITS). A further 24 hr incubation was carried out with 3 mL of fresh ITS-containing M-199 and varying concentrations of compound 1 (0.1-10 μM) or DMSO vehicle control (0.1%). This conditioned medium was harvested and spun free of cells.
See, Rifkin, et al., J. Cell Biol. 109:1-6 (1989). […]

[3] = test system: β-actin; experiment: Northern blot, β-actin probe for quantitation of RNA load in HUVECs; format: cell-based, human; conditions: 24 hr
Experimental: as §1
HUVECs were grown to confluence as described. Fresh complete medium with test compounds was added to confluent cells for an additional 24 hr incubation. bFGF (10 ng/mL), and/or compound 1 (10 μM) or DMSO control (0.1%) were added as indicated below. Total RNA was isolated by the guanidine isothiocyanate/CsCl method. Aliquots of RNA (7.5 μg) were separated on 1% agarose/formaldehyde gels, passively transferred to GeneScreen Plus membrane in 20X SSC, then cross-linked with ultraviolet light. Blots were prewashed for 1 hr at 42° C. in 1M NaCl, 10 mM Tris, 1 mM EDTA, 0.1% SDS and then hybridized overnight at 42° C. with a formamide-containing buffer (hybridization buffer final: 50% formamide, 4X SSC, 10 mM Tris pH 7.5, IX Denhardt solution, 0.2% SDS, 125 μg/ml salmon sperm DNA) with a random-primed 300 bp insert for MMP-2 (gift of Dr. William Stetler-Stevenson, Laboratory of Pathology, NCI). Blots were washed under stringent conditions then exposed to film. After removal of MMP-2 probe, blots were rehybridized with β-actin probe for quantitation of the RNA load. Results were quantitated by densitometric evaluation of the autoradiographs.
Lane 1 corresponds to the mRNA from HUVECs treated with DMSO (control). Lanes 2-4 show the mRNA isolated from HUVECs treated with compound 1 (10 μM) alone, compound 1 (10 μM) and bFGF (10 ng/mL), bFGF (10 ng/mL) alone, respectively.

NC(=O)c1nnn(Cc2cc(Cl)c(C(=O)c3ccc(Cl)cc3)c(Cl)c2)c1N [Compound 1, 5-amino-1-(4-(4-chlorobenzoyl)-3,5-dichlorobenzyl)1,2,3-triazole-4-carboxamide]
inhibition at 10 µM ([1]; 72 h, 3 days from seeding, P2<0.01): 25% | inhibition at 10 µM ([1]; 120 h, 5 days from seeding, P2<0.005): 45% | inhibition at 10 µM [2]: 90% | β-actin (densitometer) ([3]; Control + Compound 1, 10 μM): 127 Densitometer units | β-actin (densitometer) ([3]; bFGF 10 ng/mL + Compound 1 10 μM): 210 Densitometer units
